In test [1] the test system is mastocytoma cell lines carrying KIT juxtamembrane mutants. The test can be described thus: Proliferation of mastocytoma cell lines carrying KIT juxtamembrane mutants (summary). The test is classed as cell-based. Particulars: summary over cell lines.
The target of another test is recombinant human KIT (Homo sapiens, UniProt P10721). The procedure:
Tyrosine phosphorylation by KIT was assayed by measuring the incorporation of phosphate into poly(Glu,Tyr 4∶1). […] Recombinant human KIT tyrosine kinase assays were performed using an ELISA-based assay with poly(Glu,Tyr 4∶1) as a substrate.
A 96-well microtitre plate (Immulon 2HB; ThermoLifeScience, Finland) was coated overnight with 0.25 mg/ml poly(Glu,Tyr 4:1), rinsed twice with 250 µl of washing buffer (10 mM phosphate-buffered saline [pH 7.4] and 0.05% Tween 20) and dried for 2 hours at room temperature. […] Reactions were initiated upon introduction of the enzyme and terminated with the addition of one reaction volume (50 μl) of 100 mM EDTA per 5 M urea mix. Plates were washed three times and incubated with 1:30,000 horseradish peroxidase-conjugated anti-phosphotyrosine monoclonal antibody (Sigma-Aldrich, France), then washed three times and incubated with tetramethylbenzidine. The final reaction product was quantified by spectrophotometry at 450 nm.

Another test deals with T1, c-Fms (Homo sapiens, UniProt P07333).
T1 construct: expressed in transfected cells; host or cells: Ba/F3 (general description; not repeated for this kinase)
T1 sequence (P07333 20-972): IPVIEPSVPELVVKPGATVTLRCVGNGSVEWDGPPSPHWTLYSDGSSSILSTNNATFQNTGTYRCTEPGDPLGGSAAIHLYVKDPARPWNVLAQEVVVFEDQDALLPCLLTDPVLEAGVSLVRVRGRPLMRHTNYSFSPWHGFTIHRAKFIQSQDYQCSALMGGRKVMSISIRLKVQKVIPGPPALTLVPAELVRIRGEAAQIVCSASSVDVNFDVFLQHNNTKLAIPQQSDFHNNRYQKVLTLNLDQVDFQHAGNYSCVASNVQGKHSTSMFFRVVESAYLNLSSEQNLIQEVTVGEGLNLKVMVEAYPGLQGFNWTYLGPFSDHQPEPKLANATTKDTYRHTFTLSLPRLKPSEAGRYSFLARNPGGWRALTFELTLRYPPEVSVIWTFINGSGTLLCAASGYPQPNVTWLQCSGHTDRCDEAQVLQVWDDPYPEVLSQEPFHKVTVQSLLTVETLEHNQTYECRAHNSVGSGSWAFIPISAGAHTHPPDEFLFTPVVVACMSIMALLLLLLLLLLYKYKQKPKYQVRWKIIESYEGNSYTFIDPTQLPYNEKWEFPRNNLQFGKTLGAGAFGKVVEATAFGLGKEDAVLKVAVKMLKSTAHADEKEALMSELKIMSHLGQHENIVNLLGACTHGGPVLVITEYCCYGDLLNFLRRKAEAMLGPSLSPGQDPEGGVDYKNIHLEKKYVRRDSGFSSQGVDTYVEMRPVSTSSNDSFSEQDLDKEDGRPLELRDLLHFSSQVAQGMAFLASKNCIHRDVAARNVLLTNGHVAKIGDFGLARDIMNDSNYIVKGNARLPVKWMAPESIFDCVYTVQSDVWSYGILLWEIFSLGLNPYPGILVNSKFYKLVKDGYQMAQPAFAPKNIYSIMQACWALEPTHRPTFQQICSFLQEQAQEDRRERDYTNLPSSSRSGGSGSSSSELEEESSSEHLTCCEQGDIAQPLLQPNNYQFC
The test can be described thus: Ba/F3 cell proliferation (WST-1), c-Fms. As to conditions: Ba/F3 cells expressing the enzyme, read-out: Cell-based assay IC50, c-Fms. Background: Formazan colour is commonly taken as a measure of viable cells.

Test [2] deals with Epidermal growth factor receptor (Homo sapiens, UniProt P00533). The test can be described thus: Ba/F3 cell proliferation (WST-1), EGFR. Particulars: Ba/F3 cells expressing the enzyme, read-out: Cell-based assay IC50, Epidermal growth factor receptor.
Sequence of Epidermal growth factor receptor (P00533 25-1210): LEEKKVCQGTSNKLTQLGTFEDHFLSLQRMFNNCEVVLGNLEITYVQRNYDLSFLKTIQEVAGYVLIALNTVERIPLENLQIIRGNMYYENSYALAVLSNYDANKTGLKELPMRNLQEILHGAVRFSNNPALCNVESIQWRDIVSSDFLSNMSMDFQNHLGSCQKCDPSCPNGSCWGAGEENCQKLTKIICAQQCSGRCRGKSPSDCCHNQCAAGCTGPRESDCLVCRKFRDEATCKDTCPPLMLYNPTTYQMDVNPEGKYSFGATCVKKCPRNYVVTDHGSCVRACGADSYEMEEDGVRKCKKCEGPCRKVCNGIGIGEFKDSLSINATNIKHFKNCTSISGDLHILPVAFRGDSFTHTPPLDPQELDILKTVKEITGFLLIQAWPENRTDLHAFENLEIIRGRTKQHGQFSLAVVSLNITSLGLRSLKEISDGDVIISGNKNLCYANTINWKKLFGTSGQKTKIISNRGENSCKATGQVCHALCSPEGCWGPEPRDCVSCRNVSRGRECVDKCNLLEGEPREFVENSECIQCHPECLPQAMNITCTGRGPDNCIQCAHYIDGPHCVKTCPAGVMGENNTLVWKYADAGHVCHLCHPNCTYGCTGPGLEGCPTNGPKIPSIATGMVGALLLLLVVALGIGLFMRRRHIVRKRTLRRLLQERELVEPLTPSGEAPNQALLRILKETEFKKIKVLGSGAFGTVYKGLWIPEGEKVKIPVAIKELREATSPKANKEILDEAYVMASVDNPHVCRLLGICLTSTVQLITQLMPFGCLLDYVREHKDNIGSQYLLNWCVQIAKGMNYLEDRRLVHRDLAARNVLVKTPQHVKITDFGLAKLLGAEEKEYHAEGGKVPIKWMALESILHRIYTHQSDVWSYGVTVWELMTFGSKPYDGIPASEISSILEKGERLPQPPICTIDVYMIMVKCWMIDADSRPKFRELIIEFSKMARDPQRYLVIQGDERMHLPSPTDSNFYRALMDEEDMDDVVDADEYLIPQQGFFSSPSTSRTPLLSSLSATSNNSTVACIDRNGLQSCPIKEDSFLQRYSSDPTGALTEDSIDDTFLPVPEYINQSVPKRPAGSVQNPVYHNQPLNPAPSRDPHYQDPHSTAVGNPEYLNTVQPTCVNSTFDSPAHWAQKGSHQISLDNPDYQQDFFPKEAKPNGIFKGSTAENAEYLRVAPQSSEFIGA
In a further test the target is T2, Src (Homo sapiens, UniProt P12931).
T2 construct: Src (2–536; BC011566); 6xHN (N); made in house; host or cells: baculovirus, Sf9 insect cells
T2 sequence (P12931 2-536): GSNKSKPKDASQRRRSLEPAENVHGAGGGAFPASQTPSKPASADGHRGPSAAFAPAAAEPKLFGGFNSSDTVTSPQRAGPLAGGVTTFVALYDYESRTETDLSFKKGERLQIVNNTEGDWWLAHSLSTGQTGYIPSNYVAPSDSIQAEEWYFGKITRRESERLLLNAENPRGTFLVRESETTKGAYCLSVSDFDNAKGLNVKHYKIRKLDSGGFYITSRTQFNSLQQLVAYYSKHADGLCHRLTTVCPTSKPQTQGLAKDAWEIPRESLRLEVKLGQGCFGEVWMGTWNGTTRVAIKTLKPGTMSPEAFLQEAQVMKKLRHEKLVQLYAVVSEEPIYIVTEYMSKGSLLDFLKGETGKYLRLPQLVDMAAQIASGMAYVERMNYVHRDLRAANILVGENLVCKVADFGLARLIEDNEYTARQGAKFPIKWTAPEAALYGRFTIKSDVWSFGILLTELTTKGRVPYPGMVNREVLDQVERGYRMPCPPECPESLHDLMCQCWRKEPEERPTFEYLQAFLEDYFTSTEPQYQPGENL
The test is described as follows: Recombinant kinase ELISA assay, Src. It counts as biochemical. As to conditions: recombinant human enzyme; ELISA-based assay, poly(Glu,Tyr 4:1) substrate. How it is done: Full details for the generation of recombinant human KIT intracellular domain and other protein kinases (including Lyn, platelet derived growth factor receptor β, epidermal growth factor receptor, fibroblast growth factor receptor 1, Src, HCK, PYK, FES, Btk, Bmx, c-Ret, c-Fms, Syk, and c-Met) are provided in the Supplemental Methods (see Supporting Information; Methods S1). Experiments on ABL1, Akt1, protein kinase C-α, insulin-like growth factor receptor 1, and Pim1 were carried out by Proqinase (Germany). All other recombinant protein kinases were performed in-house using an enzyme-linked immunoassay; experimental details are provided in the Supplemental Methods (see Supporting Information; Methods S1).
A 96-well microtitre plate (Immulon 2HB; ThermoLifeScience, Finland) was coated overnight with 0.25 mg/ml poly(Glu,Tyr 4:1), rinsed twice with 250 µl of washing buffer (10 mM phosphate-buffered saline [pH 7.4] and 0.05% Tween 20) and dried for 2 hours at room temperature. […] Reactions were initiated upon introduction of the enzyme and terminated with the addition of one reaction volume (50 μl) of 100 mM EDTA per 5 M urea mix. […] The final reaction product was quantified by spectrophotometry at 450 nm.
(In general: In an ELISA, binding on a coated surface is turned into a signal by an enzyme label.)

Read-outs that look alike come from different tables or passages of the source.

Sequence of recombinant human KIT (P10721 567-976): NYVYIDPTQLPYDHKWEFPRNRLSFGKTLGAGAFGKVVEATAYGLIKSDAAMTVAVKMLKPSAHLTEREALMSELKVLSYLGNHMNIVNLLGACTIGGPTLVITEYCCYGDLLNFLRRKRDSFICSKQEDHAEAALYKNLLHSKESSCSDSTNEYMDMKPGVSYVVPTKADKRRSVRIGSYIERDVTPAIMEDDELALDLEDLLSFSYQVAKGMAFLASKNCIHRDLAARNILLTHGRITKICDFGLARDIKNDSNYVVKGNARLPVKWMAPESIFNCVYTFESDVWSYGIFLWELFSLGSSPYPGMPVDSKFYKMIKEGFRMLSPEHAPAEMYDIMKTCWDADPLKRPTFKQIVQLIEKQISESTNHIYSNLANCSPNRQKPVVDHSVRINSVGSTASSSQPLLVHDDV

Turning to `CS(=O)(=O)O.CS(=O)(=O)O.Cc1ccc(NC(=O)c2ccc(CN3CCN(C)CC3)cc2)cc1Nc1nc(-c2cccnc2)cs1` [masitinib, 4-(4-methylpiperazin-1-ylmethyl)-N-[4-methyl-3-(4-pyridin-3ylthiazol-2-ylamino)phenyl]benzamide-mesylate methane sulfonic acid salt], the half-inhibitory concentration (IC50) – broadly, the concentration needed to halve the response being measured – in test [1] is 10 to 30 nM; on c-Fms, 1000 ± 30 nM; in test [2], 7000 ± 800 nM; on Src it was 1870 ± 310 nM. The “mechanism of inhibition against ATP” value is given as “competitive inhibitor against ATP” at recombinant human KIT (concentrations ≤500 nM) and “mixed mechanism of inhibition against ATP” on recombinant human KIT (higher concentrations (>1 µM)).

These data come from paper PMC2746281 (PLoS ONE, 2009).
